Broadly, the EC50 is the midpoint of the concentration-response curve. A lower EC50 goes with a more potent agent. One may read the Kd as the constant that tells how readily two partners part at equilibrium. Low values mean higher affinity, high ones lower affinity.

The text below walks through data of ChEMBL document CHEMBL1129742, “Development of a high specific activity sulfur-35-labeled sulfonamide radioligand that allowed the identification of a new growth hormone secretagogue receptor” (J Med Chem, 1996).

Non-standard residues stand in square brackets, D forms with d. Residues, ends and D or L forms follow the SMILES beside them. Where only a bound is given, the exact number is not on record here.

The species entered for one experiment is Rattus norvegicus. Description: Effective Concentration for GH secretion from rat pituitary cell was determined. It is filed as functional. The note with it: Pituitary gland cell.
Experiment [1] in a line: Dissociation constant was evaluated which is similar to Ki (inhibitory constant).

As to `CC(C)(N)CC(=O)N[C@H]1CCc2ccccc2N(Cc2ccc(-c3ccccc3-c3nn[nH]n3)cc2)C1=O`, the EC50 in the experiment listed under Rattus norvegicus is > 5000 nM. Compound `CC(C)(N)C(=O)N[C@H](COCc1ccccc1)C(=O)N1CCC2(CC1)CN(S(C)(=O)=O)c1ccccc12` [IBUTAMOREN] registered a Kd in experiment [1] of 0.161 nM. Also, the EC50 in the experiment filed under Rattus norvegicus is […].

The compound `C[C@H](NC(=O)[C@@H](Cc1c[nH]c2ccccc12)NC(=O)[C@@H](N)Cc1c[nH]cn1)C(=O)N[C@@H](Cc1c[nH]c2ccccc12)C(=O)N[C@H](Cc1ccccc1)C(=O)N[C@@H](CCCCN)C(N)=O` (H-H[dW]AW[dF]K-NH2) gave an EC50 in the experiment filed under Rattus norvegicus of 10 nM.
